Measured values reported in PubChem BioAssay (NCI).
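All cell lines were grown in 96-well plates and treated with compound for 48 hours. Here, GI50 denotes the concentration required for 50% inhibition of growth. TGI denotes the concentration required for complete inhibition of growth.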

Columns and labels:
Experiment in all cases: NCI anticancer screen, dose series, 48 h
MDA-MB-468 breast = test system: MDA-MB-468 breast
786-0 renal = test system: 786-0 renal
A498 renal = test system: A498 renal
A549 NSCLC = test system: A549 NSCLC
ACHN renal = test system: ACHN renal
BT-549 breast = test system: BT-549 breast
CAKI-1 renal = test system: CAKI-1 renal
CCRF-CEM leukemia = test system: CCRF-CEM leukemia
COLO 205 colon = test system: COLO 205 colon
DU-145 prostate = test system: DU-145 prostate
EKVX NSCLC = test system: EKVX NSCLC
HCC-2998 colon = test system: HCC-2998 colon
HCT-116 colon = test system: HCT-116 colon
HCT-15 colon = test system: HCT-15 colon
HL-60(TB) leukemia = test system: HL-60(TB) leukemia
HOP-62 NSCLC = test system: HOP-62 NSCLC
HOP-92 NSCLC = test system: HOP-92 NSCLC
HS 578T breast = test system: HS 578T breast
HT29 colon = test system: HT29 colon
IGROV1 ovarian = test system: IGROV1 ovarian
K-562 leukemia = test system: K-562 leukemia
KM12 colon = test system: KM12 colon
LOX IMVI melanoma = test system: LOX IMVI melanoma
M14 melanoma = test system: M14 melanoma
MALME-3M melanoma = test system: MALME-3M melanoma
MCF7 breast = test system: MCF7 breast
MDA-MB-435 = test system: MDA-MB-435
MOLT-4 leukemia = test system: MOLT-4 leukemia
NCI-H226 lung = test system: NCI-H226 lung
NCI-H23 lung = test system: NCI-H23 lung
NCI-H460 lung = test system: NCI-H460 lung
NCI-H522 lung = test system: NCI-H522 lung
NCI/ADR-RES ovarian = test system: NCI/ADR-RES ovarian
OVCAR-3 ovarian = test system: OVCAR-3 ovarian
OVCAR-4 ovarian = test system: OVCAR-4 ovarian
OVCAR-5 ovarian = test system: OVCAR-5 ovarian
OVCAR-8 ovarian = test system: OVCAR-8 ovarian
PC-3 prostate = test system: PC-3 prostate
RPMI-8226 leukemia = test system: RPMI-8226 leukemia
RXF 393 renal = test system: RXF 393 renal
SF-268 CNS = test system: SF-268 CNS
SF-295 CNS = test system: SF-295 CNS
SF-539 CNS = test system: SF-539 CNS
SK-MEL-28 melanoma = test system: SK-MEL-28 melanoma
SK-MEL-5 melanoma = test system: SK-MEL-5 melanoma
SK-OV-3 ovarian = test system: SK-OV-3 ovarian
SN12C renal = test system: SN12C renal
SNB-19 CNS = test system: SNB-19 CNS
SR leukemia = test system: SR leukemia
SW-620 colon = test system: SW-620 colon
T-47D breast = test system: T-47D breast
TK-10 renal = test system: TK-10 renal
U251 CNS = test system: U251 CNS
UACC-257 melanoma = test system: UACC-257 melanoma
UACC-62 melanoma = test system: UACC-62 melanoma

With COC1CCC(n2c([C@@H]3CCCC(=O)N3c3ccc(F)c(F)c3)nc3cc(-c4c(C)noc4C)ccc32)CC1 (stereo not given in full) the GI50 (MDA-MB-468 breast) was 3.95 µM and the TGI (MDA-MB-468 breast) was 28.4 µM.

Molecule COC(=O)[C@]12CC[C@@H](C)[C@H](C)[C@@H]1C1=CC[C@@H]3[C@@]4(C)C=C(O)C(=O)C(C)=C4CC[C@@]3(C)[C@]1(C)CC2 has a GI50 (MDA-MB-468 breast) of 9.95 µM and a TGI (MDA-MB-468 breast) of 26.9 µM.

Work on O=C1C(=O)c2c(nc3ncccn23)-c2ccccc21 yielded a GI50 (MDA-MB-468 breast) of 0.205 µM and a TGI (MDA-MB-468 breast) of 0.555 µM.

Work on CCCCc1nc2cc(/C=C/C(=O)NO)ccc2n1CCN(CC)CC yielded a GI50 (MDA-MB-468 breast) of 0.177 µM and a TGI (MDA-MB-468 breast) of 1.91 µM.

In the case of Nc1nc(Nc2ccc3c(c2)CCC(N2CCCC2)CC3)nn1-c1cc2c(nn1)-c1ccccc1CCC2 (stereo not given), the GI50 (MDA-MB-468 breast) is reported as 1.4 µM and the TGI (MDA-MB-468 breast) is reported as 2.9 µM.

For CCOC(=O)c1cnc2c(cnn2CC)c1NN=C(C)C, the GI50 (MDA-MB-468 breast) was 31.3 µM and the TGI (MDA-MB-468 breast) was > 100 µM.

For NCC(=O)CCC(=O)O, the GI50 (MDA-MB-468 breast) was > 100 µM and the TGI (MDA-MB-468 breast) was > 100 µM.

With COc1ccc(-c2nn(-c3cccc(NC(=O)Nc4cccc(C(F)(F)F)c4)c3)cc2-c2ccncc2)cc1Cl the GI50 (MDA-MB-468 breast) was 1.54 µM and the TGI (MDA-MB-468 breast) was 6.47 µM.

COc1ccc(C(=O)N/N=C/c2ccc(O)cc2O)cc1Nc1ccnc(C(F)(F)F)c1 showed a GI50 (MDA-MB-468 breast) of 0.365 µM and a TGI (MDA-MB-468 breast) of 68.1 µM.

Molecule COc1ccc2sc3c(NCCCNCCO)nc4ccccc4c3c(=O)c2c1 has a GI50 (MDA-MB-468 breast) of 1.73 µM and a TGI (MDA-MB-468 breast) of 3.41 µM.

With CC12CCC(O)CC1CCC1C2CCC2(C)C(C3=CC(=O)OC3)CCC12 (stereo not given) the GI50 (MDA-MB-468 breast) was 5.29 µM and the TGI (MDA-MB-468 breast) was > 42.9 µM.

In the case of c1ccc2c(c1)ccc1c3ccccc3ccc21, the GI50 (MDA-MB-468 breast) is reported as 8.59 µM and the TGI (MDA-MB-468 breast) is reported as > 50 µM.

CCC(C)CC(CC)NCCN1CCN(C(CC)CC(C)CC)C1=S (stereo not given) gave a GI50 (MDA-MB-468 breast) of 1.54 µM and a TGI (MDA-MB-468 breast) of 2.89 µM.

In the case of C=C1C(=O)O[C@H]2[C@H]1CC/C(COC(=O)C(=O)c1cn(C)c3ccc(OC)cc13)=C\CC[C@@]1(C)O[C@@H]21, the GI50 (MDA-MB-468 breast) is reported as 1.73 µM and the TGI (MDA-MB-468 breast) is reported as 2.92 µM.

With COc1cccc(C2C(C#N)=C(N)Oc3cc(OC)ccc32)c1 (stereo not given) the GI50 (MDA-MB-468 breast) was 0.0322 µM and the TGI (MDA-MB-468 breast) was > 60 µM.

Work on CS(=O)(=O)Nc1ccc(-c2ccc3c(c2)ncn3-c2ccc(NC(=O)Nc3ccc(Br)cc3)cc2)cc1 yielded a GI50 (786-0 renal) of 2.25 µM, a TGI (786-0 renal) of 16 µM and a GI50 (A498 renal) of 3.42 µM. For the same molecule, the TGI (A498 renal) was 21.5 µM, the GI50 (A549 NSCLC) was 2.44 µM and the TGI (A549 NSCLC) was > 72.3 µM. It also gave a GI50 (ACHN renal) of 2.55 µM, a TGI (ACHN renal) of 12.3 µM and a GI50 (BT-549 breast) of 2.64 µM. The TGI (BT-549 breast) was 12.8 µM, the GI50 (CAKI-1 renal) was 6 µM and the TGI (CAKI-1 renal) was > 72.3 µM. The GI50 (CCRF-CEM leukemia) was 2.12 µM, the TGI (CCRF-CEM leukemia) was 7.23 µM and the GI50 (COLO 205 colon) was 2.59 µM. For the same molecule, the TGI (COLO 205 colon) was > 72.3 µM, the GI50 (DU-145 prostate) was 3.36 µM and the TGI (DU-145 prostate) was > 72.3 µM. The GI50 (EKVX NSCLC) was 2.4 µM, the TGI (EKVX NSCLC) was > 72.3 µM and the GI50 (HCC-2998 colon) was 3.32 µM. For the same molecule, the TGI (HCC-2998 colon) was > 72.3 µM, the GI50 (HCT-116 colon) was 2.33 µM and the TGI (HCT-116 colon) was > 72.3 µM. For the same molecule, the GI50 (HCT-15 colon) was 2.4 µM, the TGI (HCT-15 colon) was > 72.3 µM and the GI50 (HL-60(TB) leukemia) was 1.49 µM. It also gave a TGI (HL-60(TB) leukemia) of 3.33 µM, a GI50 (HOP-62 NSCLC) of 2.54 µM and a TGI (HOP-62 NSCLC) of 13 µM. The GI50 (HOP-92 NSCLC) was 3.39 µM, the TGI (HOP-92 NSCLC) was > 72.3 µM and the GI50 (HS 578T breast) was 2.42 µM. The TGI (HS 578T breast) was > 72.3 µM, the GI50 (HT29 colon) was 2.43 µM and the TGI (HT29 colon) was > 72.3 µM. For the same molecule, the GI50 (IGROV1 ovarian) was 3.17 µM, the TGI (IGROV1 ovarian) was > 72.3 µM and the GI50 (K-562 leukemia) was 1.88 µM. The TGI (K-562 leukemia) was 4.91 µM, the GI50 (KM12 colon) was 0.336 µM and the TGI (KM12 colon) was > 72.3 µM. The GI50 (LOX IMVI melanoma) was 2.64 µM, the TGI (LOX IMVI melanoma) was 44.3 µM and the GI50 (M14 melanoma) was 2.36 µM. The TGI (M14 melanoma) was > 72.3 µM, the GI50 (MALME-3M melanoma) was 1.95 µM and the TGI (MALME-3M melanoma) was 5.94 µM. The GI50 (MCF7 breast) was 1.81 µM, the TGI (MCF7 breast) was 7.89 µM and the GI50 (MDA-MB-435) was 2.62 µM. The TGI (MDA-MB-435) was > 72.3 µM, the GI50 (MDA-MB-468 breast) was 2.26 µM and the TGI (MDA-MB-468 breast) was 10.9 µM. The GI50 (MOLT-4 leukemia) was 1.37 µM, the TGI (MOLT-4 leukemia) was 4.31 µM and the GI50 (NCI-H226 lung) was 3.08 µM. The TGI (NCI-H226 lung) was > 72.3 µM, the GI50 (NCI-H23 lung) was 2.57 µM and the TGI (NCI-H23 lung) was > 72.3 µM. The GI50 (NCI-H460 lung) was 2.64 µM, the TGI (NCI-H460 lung) was > 72.3 µM and the GI50 (NCI-H522 lung) was 2.11 µM. For the same molecule, the TGI (NCI-H522 lung) was 31.2 µM, the GI50 (NCI/ADR-RES ovarian) was 10.8 µM and the TGI (NCI/ADR-RES ovarian) was > 72.3 µM. For the same molecule, the GI50 (OVCAR-3 ovarian) was 2.76 µM, the TGI (OVCAR-3 ovarian) was > 72.3 µM and the GI50 (OVCAR-4 ovarian) was 3.13 µM. The TGI (OVCAR-4 ovarian) was > 72.3 µM, the GI50 (OVCAR-5 ovarian) was 3.4 µM and the TGI (OVCAR-5 ovarian) was > 72.3 µM. The GI50 (OVCAR-8 ovarian) was 2.81 µM, the TGI (OVCAR-8 ovarian) was > 72.3 µM and the GI50 (PC-3 prostate) was 2.69 µM. For the same molecule, the TGI (PC-3 prostate) was > 72.3 µM, the GI50 (RPMI-8226 leukemia) was 1.52 µM and the TGI (RPMI-8226 leukemia) was 3.85 µM. For the same molecule, the GI50 (RXF 393 renal) was 1.16 µM, the TGI (RXF 393 renal) was 4.56 µM and the GI50 (SF-268 CNS) was 3.41 µM. The TGI (SF-268 CNS) was > 72.3 µM, the GI50 (SF-295 CNS) was 1.57 µM and the TGI (SF-295 CNS) was 4.41 µM. The GI50 (SF-539 CNS) was 0.83 µM, the TGI (SF-539 CNS) was 7.64 µM and the GI50 (SK-MEL-28 melanoma) was 2.18 µM. The TGI (SK-MEL-28 melanoma) was > 72.3 µM, the GI50 (SK-MEL-5 melanoma) was 2.35 µM and the TGI (SK-MEL-5 melanoma) was 7.81 µM. For the same molecule, the GI50 (SK-OV-3 ovarian) was 2.92 µM, the TGI (SK-OV-3 ovarian) was > 72.3 µM and the GI50 (SN12C renal) was 2.37 µM. The TGI (SN12C renal) was > 72.3 µM, the GI50 (SNB-19 CNS) was 2.57 µM and the TGI (SNB-19 CNS) was > 72.3 µM. For the same molecule, the GI50 (SR leukemia) was 1.39 µM, the TGI (SR leukemia) was 3.47 µM and the GI50 (SW-620 colon) was 3.05 µM. The TGI (SW-620 colon) was > 72.3 µM, the GI50 (T-47D breast) was 2.75 µM and the TGI (T-47D breast) was > 72.3 µM. For the same molecule, the GI50 (TK-10 renal) was 3.32 µM, the TGI (TK-10 renal) was > 72.3 µM and the GI50 (U251 CNS) was 2.4 µM. For the same molecule, the TGI (U251 CNS) was > 72.3 µM, the GI50 (UACC-257 melanoma) was 2.17 µM and the TGI (UACC-257 melanoma) was 7.89 µM. For the same molecule, the GI50 (UACC-62 melanoma) was 2.25 µM and the TGI (UACC-62 melanoma) was 9.2 µM.
